Patent publication US12162858B2, “Quinoline derivatives as inhibitors of AXL/MER RTK and CSF1R” (QURIENT CO., LTD., priority 2018, dated 2024)
Where two headings read alike, the source gives them in different places. Values belong to the molecule of their own block, whether it stands above or below them.

Experiments:
[1] = target: T1, Mer (Homo sapiens, UniProt Q12866); assay: LanthaScreen Eu kinase binding assay for Mer; conditions: read-out: Mer kinase binding activity (Kd)
T1 construct: purchased Life Technologies
T1 sequence (Q12866 21-999): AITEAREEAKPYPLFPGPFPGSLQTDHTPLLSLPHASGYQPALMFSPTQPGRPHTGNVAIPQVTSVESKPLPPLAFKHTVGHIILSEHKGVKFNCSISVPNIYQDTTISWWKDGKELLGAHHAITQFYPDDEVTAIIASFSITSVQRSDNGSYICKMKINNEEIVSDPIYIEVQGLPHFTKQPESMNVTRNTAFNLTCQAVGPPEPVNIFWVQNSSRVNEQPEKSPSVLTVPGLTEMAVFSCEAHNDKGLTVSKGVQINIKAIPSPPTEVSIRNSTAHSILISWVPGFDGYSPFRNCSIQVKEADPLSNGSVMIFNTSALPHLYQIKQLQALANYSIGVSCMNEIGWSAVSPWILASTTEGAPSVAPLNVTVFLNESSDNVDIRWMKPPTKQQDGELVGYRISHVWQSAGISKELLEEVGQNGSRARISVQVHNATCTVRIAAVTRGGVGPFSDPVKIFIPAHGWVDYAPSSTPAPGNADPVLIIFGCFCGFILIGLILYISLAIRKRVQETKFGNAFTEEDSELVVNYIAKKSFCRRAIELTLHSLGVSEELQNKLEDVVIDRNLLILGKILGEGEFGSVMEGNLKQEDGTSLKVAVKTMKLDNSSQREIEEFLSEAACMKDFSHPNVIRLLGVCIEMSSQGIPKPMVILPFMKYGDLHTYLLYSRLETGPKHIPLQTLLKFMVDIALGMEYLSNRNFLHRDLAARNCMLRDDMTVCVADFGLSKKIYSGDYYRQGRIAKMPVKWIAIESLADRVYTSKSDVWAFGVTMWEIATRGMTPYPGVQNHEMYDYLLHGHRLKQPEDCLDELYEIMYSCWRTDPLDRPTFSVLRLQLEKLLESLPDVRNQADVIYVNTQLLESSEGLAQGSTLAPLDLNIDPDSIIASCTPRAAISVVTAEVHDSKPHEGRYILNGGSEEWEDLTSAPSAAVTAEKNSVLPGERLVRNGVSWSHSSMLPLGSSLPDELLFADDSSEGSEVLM
Summary of the method: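 Kd values come from control-normalized FRET loss, referenced to DMSO vehicle wells, after 1 h at room temperature. Each compound was serially diluted over eight steps in DMSO and competed against Tracer 236 (Alexa Fluor 647) for the kinase, which was tagged by a Eu anti-GST antibody.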

[2] = target: CSF1R (Homo sapiens, UniProt P07333); assay: KINOMEscan competition binding assay for CSF1R; parameters: DNA tag for qPCR (not a peptide); host or cells: E. coli/T7 phage or HEK-293; conditions: @ 0.1 uM
Summary of the method: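 Values are either % inhibition at 0.1 uM, relative to DMSO (100% Ctrl) and a control compound (0% Ctrl), or Kd from an 11-point 3-fold series fitted with Hill slope −1. DNA-tagged kinase binds immobilized ligand beads with compound for 1 h at room temperature, and eluted kinase is measured by qPCR.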

[3] = read-out: CSF1R kinase binding activity, Percent (%) inhibition
[4] = read-out: CSF1R kinase binding activity, Range

CSF1R, sequence (P07333 20-972): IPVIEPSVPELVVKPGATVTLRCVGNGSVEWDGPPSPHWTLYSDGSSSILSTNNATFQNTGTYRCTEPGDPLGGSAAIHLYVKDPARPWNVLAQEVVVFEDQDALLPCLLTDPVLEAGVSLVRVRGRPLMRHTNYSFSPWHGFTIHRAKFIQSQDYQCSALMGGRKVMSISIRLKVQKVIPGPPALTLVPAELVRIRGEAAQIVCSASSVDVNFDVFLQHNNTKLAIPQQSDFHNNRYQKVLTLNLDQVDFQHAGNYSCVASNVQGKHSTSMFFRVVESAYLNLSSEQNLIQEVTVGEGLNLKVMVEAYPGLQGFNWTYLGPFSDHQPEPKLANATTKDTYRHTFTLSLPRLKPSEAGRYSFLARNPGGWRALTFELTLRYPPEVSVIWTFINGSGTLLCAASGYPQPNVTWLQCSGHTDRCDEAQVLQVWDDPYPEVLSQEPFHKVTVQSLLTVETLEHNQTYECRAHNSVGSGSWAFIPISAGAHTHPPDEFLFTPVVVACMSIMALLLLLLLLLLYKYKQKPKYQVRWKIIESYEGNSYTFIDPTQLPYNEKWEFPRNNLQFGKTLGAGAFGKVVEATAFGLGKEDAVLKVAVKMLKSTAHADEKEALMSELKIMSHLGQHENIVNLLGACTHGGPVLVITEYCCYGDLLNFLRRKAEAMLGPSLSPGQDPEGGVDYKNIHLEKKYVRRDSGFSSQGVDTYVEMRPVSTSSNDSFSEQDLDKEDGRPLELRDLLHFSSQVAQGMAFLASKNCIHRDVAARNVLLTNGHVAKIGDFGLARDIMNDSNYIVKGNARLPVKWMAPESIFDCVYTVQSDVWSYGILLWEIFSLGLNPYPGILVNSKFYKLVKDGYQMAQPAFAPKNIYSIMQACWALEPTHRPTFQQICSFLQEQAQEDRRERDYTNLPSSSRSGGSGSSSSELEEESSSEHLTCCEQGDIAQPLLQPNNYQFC

Kd [1]: < 100 nM
inhibition at 0.1 µM [2, 3]: 81%
inhibition at 0.1 µM [2, 4]: ≥ 80%
SMILES: COCCn1cc(OCC(F)(F)F)c(C(=O)Nc2ccc(Oc3ccnc4cc(OC)c(OC)cc34)c(F)c2)n1 [Compound 54]

Kd [1]: < 100 nM
inhibition at 0.1 µM [2, 3]: 0%
inhibition at 0.1 µM [2, 4]: < 50%
SMILES: COc1cc2nccc(Oc3ccc(NC(=O)c4nn(CCO)cc4OCC(F)(F)F)cc3C)c2cc1OC [Compound 56]

Kd [1]: < 100 nM
inhibition at 0.1 µM [2, 3]: 97%
inhibition at 0.1 µM [2, 4]: ≥ 80%
SMILES: COc1cc2nccc(Oc3ccc(NC(=O)c4nn(C5CCCC5)cc4OCC(F)(F)F)cc3C)c2cc1OC [Compound 57]

Kd [1]: < 100 nM
inhibition at 0.1 µM [2, 3]: 75%
inhibition at 0.1 µM [2, 4]: 50 to 80%
SMILES: COc1cc2nccc(Oc3ccc(NC(=O)c4nn(C5CCCC5)cc4OCC(F)(F)F)cc3)c2cc1OC [Compound 60]

Kd [1]: < 100 nM
inhibition at 0.1 µM [2, 3]: 96%
inhibition at 0.1 µM [2, 4]: ≥ 80%
SMILES: COc1cc2nccc(Oc3ccc(NC(=O)c4nn(C5COC5)cc4OCC(F)(F)F)nc3)c2cc1OC [Compound 66]

Kd [1]: < 100 nM
inhibition at 0.1 µM [2, 3]: 98%
inhibition at 0.1 µM [2, 4]: ≥ 80%
SMILES: COc1cc2nccc(Oc3ccc(NC(=O)c4nn(CCCN)cc4OCC(F)(F)F)nc3)c2cc1OC [Compound 68]

Kd [1]: < 100 nM
inhibition at 0.1 µM [2, 3]: 79%
inhibition at 0.1 µM [2, 4]: 50 to 80%
SMILES: COc1cc2nccc(Oc3ccc(NC(=O)c4nn(C5CCNC5)cc4OCC(F)(F)F)nc3)c2cc1OC (stereo not drawn) [Compound 70]

Kd [1]: < 100 nM
inhibition at 0.1 µM [2, 3]: 96%
inhibition at 0.1 µM [2, 4]: ≥ 80%
SMILES: COc1cc2nccc(Oc3ccc(NC(=O)c4nn(CC5CCNC5)cc4OCC(F)(F)F)nc3)c2cc1OC (stereo not drawn) [Compound 72]

Kd [1]: < 100 nM
inhibition at 0.1 µM [2, 3]: 94%
inhibition at 0.1 µM [2, 4]: ≥ 80%
SMILES: COc1cc2nccc(Oc3ccc(NC(=O)c4nn(CC(C)O)cc4OCC(F)(F)F)c(F)c3)c2cc1OC (stereo not drawn) [Compound 76]

Kd [1]: < 100 nM
inhibition at 0.1 µM [2, 3]: 84%
inhibition at 0.1 µM [2, 4]: ≥ 80%
SMILES: COc1cc2nccc(Oc3ccc(NC(=O)c4nn(CCC(F)(F)F)cc4OCC4CCC4)nc3)c2cc1OC [Compound 166]

Kd [1]: < 100 nM
inhibition at 0.1 µM [2, 3]: 0%
inhibition at 0.1 µM [2, 4]: < 50%
SMILES: CCCn1cc(OCC2CCC2)c(C(=O)Nc2ccc(Oc3ccnc4cc(OC)c(OC(F)(F)F)cc34)cn2)n1 [Compound 167]

Kd [1]: < 100 nM
inhibition at 0.1 µM [2, 3]: 95%
inhibition at 0.1 µM [2, 4]: ≥ 80%
SMILES: COc1cc2nccc(Oc3ccc(NC(=O)c4nn(CCNC5CC5)cc4OCC(F)(F)F)nc3)c2cc1OC [Compound 168]

Kd [1]: < 100 nM
inhibition at 0.1 µM [2, 3]: 93%
inhibition at 0.1 µM [2, 4]: ≥ 80%
SMILES: COc1cc2nccc(Oc3ccc(NC(=O)c4nn(CC5CCN(C)C5)cc4OCC(F)(F)F)nc3)c2cc1OC (stereo not drawn) [Compound 169]

Kd [1]: < 100 nM
inhibition at 0.1 µM [2, 3]: 90%
inhibition at 0.1 µM [2, 4]: ≥ 80%
SMILES: COc1cc2nccc(Oc3ccc(NC(=O)c4nn(C5CC5)cc4OCCC(F)(F)F)nc3)c2cc1OC [Compound 170]

Continued, molecule first:

SMILES: COc1cc2nccc(Oc3ccc(NC(=O)c4nn(CC(C)C)cc4OCC(F)(F)F)c(F)c3)c2cc1OC [Compound 48]
Kd [1]: < 100 nM
inhibition at 0.1 µM [2, 3]: 82%
inhibition at 0.1 µM [2, 4]: ≥ 80%

SMILES: COCCn1cc(OCC(F)(F)F)c(C(=O)Nc2ccc(Oc3ccnc4cc(OC)c(OC)cc34)cc2F)n1 [Compound 49]
Kd [1]: < 100 nM
inhibition at 0.1 µM [2, 3]: 66%
inhibition at 0.1 µM [2, 4]: 50 to 80%

SMILES: COc1cc2nccc(Oc3ccc(NC(=O)c4nn(C)cc4OCC(F)(F)F)cc3F)c2cc1OC [Compound 50]
Kd [1]: < 100 nM
inhibition at 0.1 µM [2, 3]: 80%
inhibition at 0.1 µM [2, 4]: 50 to 80%

SMILES: COc1cc2nccc(Oc3ccc(NC(=O)c4nn(CCO)cc4OCC(F)(F)F)cc3F)c2cc1OC [Compound 51]
Kd [1]: < 100 nM
inhibition at 0.1 µM [2, 3]: 82%
inhibition at 0.1 µM [2, 4]: ≥ 80%

SMILES: COc1cc2nccc(Oc3ccc(NC(=O)c4nn(C5CCCC5)cc4OCC(F)(F)F)cc3F)c2cc1OC [Compound 52]
Kd [1]: < 100 nM
inhibition at 0.1 µM [2, 3]: 71%
inhibition at 0.1 µM [2, 4]: 50 to 80%

SMILES: COc1cc2nccc(Oc3ccc(NC(=O)c4nn(CC(C)C)cc4OCC(F)(F)F)cc3F)c2cc1OC [Compound 53]
Kd [1]: < 100 nM
inhibition at 0.1 µM [2, 3]: 71%
inhibition at 0.1 µM [2, 4]: 50 to 80%

SMILES: COc1cc2nccc(Oc3ccc(NC(=O)c4nn(C5CCOC5)cc4OCC(F)(F)F)cc3F)c2cc1OC (stereo not drawn) [Compound 55]
Kd [1]: < 100 nM
inhibition at 0.1 µM [2, 3]: 60%
inhibition at 0.1 µM [2, 4]: 50 to 80%

SMILES: COc1cc2nccc(Oc3ccc(NC(=O)c4nn(CC(C)C)cc4OCC(F)(F)F)cc3C)c2cc1OC [Compound 58]
Kd [1]: < 100 nM
inhibition at 0.1 µM [2, 3]: 76%
inhibition at 0.1 µM [2, 4]: 50 to 80%

SMILES: COc1cc2nccc(Oc3ccc(NC(=O)c4nn(CCO)cc4OCC(F)(F)F)cc3)c2cc1OC [Compound 59]
Kd [1]: < 100 nM
inhibition at 0.1 µM [2, 3]: 82%
inhibition at 0.1 µM [2, 4]: ≥ 80%

SMILES: COCCn1cc(OCC(F)(F)F)c(C(=O)Nc2ccc(Oc3ccnc4cc(OC)c(OC)cc34)cc2)n1 [Compound 61]
Kd [1]: < 100 nM
inhibition at 0.1 µM [2, 3]: 76%
inhibition at 0.1 µM [2, 4]: 50 to 80%

SMILES: COc1cc2nccc(Oc3ccc(NC(=O)c4nn(C5CCOC5)cc4OCC(F)(F)F)cc3)c2cc1OC (stereo not drawn) [Compound 62]
Kd [1]: < 100 nM
inhibition at 0.1 µM [2, 3]: 54%
inhibition at 0.1 µM [2, 4]: 50 to 80%

SMILES: COc1cc2nccc(Oc3ccc(NC(=O)c4nn(CC(C)N)cc4OCC(F)(F)F)nc3)c2cc1OC (stereo not drawn) [Compound 63]
Kd [1]: < 100 nM
inhibition at 0.1 µM [2, 3]: 96%
inhibition at 0.1 µM [2, 4]: ≥ 80%

SMILES: COc1cc2nccc(Oc3ccc(NC(=O)c4nn(CC(C)(F)F)cc4OCC(F)(F)F)nc3)c2cc1OC [Compound 64]
Kd [1]: < 100 nM
inhibition at 0.1 µM [2, 3]: 95%
inhibition at 0.1 µM [2, 4]: ≥ 80%

SMILES: COc1cc2nccc(Oc3ccc(NC(=O)c4nn(CCOC5CCC5)cc4OCC(F)(F)F)nc3)c2cc1OC [Compound 65]
Kd [1]: < 100 nM
inhibition at 0.1 µM [2, 3]: 96%
inhibition at 0.1 µM [2, 4]: ≥ 80%

SMILES: COc1cc2nccc(Oc3ccc(NC(=O)c4nn(CCO)cc4OCC(F)(F)F)nc3)c2cc1OC [Compound 67]
Kd [1]: < 100 nM
inhibition at 0.1 µM [2, 3]: 96%
inhibition at 0.1 µM [2, 4]: ≥ 80%

SMILES: COc1cc2nccc(Oc3ccc(NC(=O)c4nn(C5CCCCC5)cc4OCC(F)(F)F)nc3)c2cc1OC [Compound 69]
Kd [1]: < 100 nM
inhibition at 0.1 µM [2, 3]: 89%
inhibition at 0.1 µM [2, 4]: ≥ 80%

SMILES: COc1cc2nccc(Oc3ccc(NC(=O)c4nn(CC5CCCC5)cc4OCC(F)(F)F)nc3)c2cc1OC [Compound 71]
Kd [1]: < 100 nM
inhibition at 0.1 µM [2, 3]: 88%
inhibition at 0.1 µM [2, 4]: ≥ 80%

SMILES: COc1cc2nccc(Oc3ccc(NC(=O)c4nn(CC5CNC5)cc4OCC(F)(F)F)nc3)c2cc1OC [Compound 73]
Kd [1]: 100 to 500 nM
inhibition at 0.1 µM [2, 3]: 97%
inhibition at 0.1 µM [2, 4]: ≥ 80%

SMILES: COc1cc2nccc(Oc3ccc(NC(=O)c4nn(C5CCNC5)cc4OCC(F)(F)F)c(F)c3)c2cc1OC (stereo not drawn) [Compound 74]
Kd [1]: 100 to 500 nM
inhibition at 0.1 µM [2, 3]: 39%
inhibition at 0.1 µM [2, 4]: < 50%

SMILES: COc1cc2nccc(Oc3ccc(NC(=O)c4nn(CCN)cc4OCC(F)(F)F)c(F)c3)c2cc1OC [Compound 75]
Kd [1]: 100 to 500 nM
inhibition at 0.1 µM [2, 3]: 57%
inhibition at 0.1 µM [2, 4]: 50 to 80%

SMILES: COCCOc1cn(C2CC2)nc1C(=O)Nc1ccc(Oc2ccnc3cc(OC)c(OC)cc23)nn1 [Compound 171]
Kd [1]: 100 to 500 nM
inhibition at 0.1 µM [2, 3]: 60%
inhibition at 0.1 µM [2, 4]: 50 to 80%

SMILES: COc1cc2nccc(Oc3ccc(NC(=O)c4nn(C5CC5)cc4OCC4CNC4)nn3)c2cc1OC [Compound 172]
Kd [1]: ≥ 500 nM
inhibition at 0.1 µM [2, 3]: 36%
inhibition at 0.1 µM [2, 4]: < 50%
